# Reference: US20260138981A1, “DIHYDROFOLATE REDUCTASE INHIBITORS FOR ANTI-BIOTIC RESISTANT INFECTIONS” (THE TRUSTEES OF PRINCETON UNIVERSITY, priority 2022, published 2026)
# Columns and labels:
# [1] = system: PBMC; format: cell-based; conditions: 72 h
# Description: FIG. 5D provides IC50 of fluorofolin against in vitro mammalian cell lines relative to the IC50 of IRS-16. HLF: human lung fibroblast, HK-2: human kidney epithelial, PBMC: peripheral blood mononuclear cell, WI-38: Embryonic lung tissue.
# After 24 hours, DMSO or compounds were added in 3-fold dilutions and incubated for 72 hours. For PBMC, CellTiter-Glo Reagent was added in equal volume and incubated for 30 min after which luminescence was read. For other cell types, CyQUANT Detection Reagent was added in equal volume and incubated for 1 hour after which fluorescence was read with standard green filter set (508/527 nm ex). Cell toxicity was evaluated by Pharmaron, Inc. (Beijing, […]).
# [2] = system: CDC & FDA Antibiotic Resistant P. aeruginosa Isolate Bank; assay: CDC clinical isolate panel growth inhibition; format: cell-based; conditions: 50 μg/mL
# Description: Strains with growth inhibition>80% were considered sensitive to fluorofolin treatment.
# Clinical isolates^45 were inoculated into LB Broth a 96-well flat bottom plate and grown overnight to stationary phase at 37° C. […] Percent growth was calculated by dividing OD600 of fluorofolin antibiotic treated wells to vehicle only wells.
# [3] = Pharmacokinetic analysis after single oral dose; format: in vivo, mouse; conditions: single dose 200 mg/kg PO, CD-1 mice
# Description: FIG. 2A quantifies plasma concentration of fluorofolin over time after single oral administration to neutropenic CD1 mice. Each line is representative of an individual mouse.
# Pharmacokinetics determination: Care and handling of male CD-1 mice approximately 6-8 weeks old conformed to institutional animal care and use policies as carried out at Pharmaron, Inc. (Beijing, ROC).
# Pharmacokinetic properties were determined after a single dose of 200 mg/kg fluorofolin given PO. Plasma samples were taken from three mice at times 0.083, 0.25, 0.5, 1, 2, 4, 8, and 24 hours and quantitative analysis was performed using LC/MS/MS. Half-life was determined from plasma concentration after fluorofolin levels reached pseudo-equilibrium (4 hours for mouse 1 and 2, and 2 hours for mouse 3). Pharmacokinetic values were estimated using a non-compartmental model generated from WinNonlin 6.1. Pharmacokinetic analysis was carried out by Pharmaron, Inc. (Beijing, ROC).
# [4] = system: S. typhimurium CMCC 50115; assay: MIC, WuXi, Mueller-Hinton Broth; format: cell-based; conditions: Salmonella enterica, performed by WuXi in Mueller-Hinton Broth
# Description: (§1) For MICs calculations performed by WuXi (Shanghai, China), MIC was calculated as the lowest concentration that inhibits visible growth after 18 hours. 4-8 bacterial colonies of strains of interest were vortexed in saline and adjusted to an OD600 of 0.2. Strains were diluted 1:200 into CAMHB media into 96-well plates. Antibiotics were serially diluted 1:3 in DMSO, and 1 μL of each dilution was added to bacteria. The plates were incubated for 18-20 hours at 37° C. before observation.
# [5] = system: E. faecalis ATCC 51575; assay: MIC, WuXi, Mueller-Hinton Broth; format: cell-based; conditions: Enterococcus faecalis, ATCC51575, performed by WuXi in Mueller-Hinton Broth
# Description: as §1
# [6] = system: A. baumannii ATCC 17978; assay: MIC, WuXi, Mueller-Hinton Broth; format: cell-based; conditions: Acinetobacter baumannii, ATCC17978, performed by WuXi in Mueller-Hinton Broth
# Description: as §1
# [7] = system: E. coli ATCC BAA-198; assay: MIC, WuXi, Mueller-Hinton Broth; format: cell-based; conditions: Escherichia coli, ATCCBAA198, performed by WuXi in Mueller-Hinton Broth
# Description: as §1
# [8] = system: S. aureus NRS384; assay: MIC, WuXi, Mueller-Hinton Broth; format: cell-based; conditions: Staphylococcus aureus, performed by WuXi in Mueller-Hinton Broth
# Description: as §1
# [9] = system: P. aeruginosa PA14; assay: Colony forming units (CFU) counting after 4-hour treatment; format: cell-based; conditions: rich media, PA14, 2×MIC, CFU/mL
# Description: Data points represent 3 biological replicates with 3 technical replicates. Mean±SD are shown.
# P. aeruginosa PA14 overnight cultures were diluted 1:100 and grown to exponential phase (OD600=0.4-0.6). Cultures were diluted 1:10 and treated with antibiotic. At each time point, 150 μL of culture was removed, serial diluted 1:10 six times, and plated onto LB Agar plates. Plates were grown overnight at 37° C. after which visible colonies were counted. CFU/mL was reported from dilutions in which ˜10-100 single colonies were visible.
# [10] = system: sheep red blood cells
# Description: Percent hemolysis was measured using Abs405 compared to 100% lysis control by Triton X-100 (1% v/v). Mean±SD of technical triplicates are shown.
# Samples were treated at 37° C. with shaking for 1 hour and then centrifuged. Supernatants were collected and absorbances were measured at 405 nm in a Tecan InfiniteM200 Pro (Männedorf, CH) microplate reader. Percentage hemolysis was calculated compared to 100% lysis by Triton X-100 (1% v/v) (Sigma-Aldrich X100RS).
# [11] = system: E. coli lptD4213; assay: Membrane potential and permeability, TO-PRO-3 and DiOC2(3) flow cytometry; format: cell-based; conditions: E. coli lptD4213, 2×MIC
# Description: FIG. 5B provides flow cytometry of E. coli lptD4213 treated with 5% DMSO, 5 μM CCCP, or 2×MIC fluorofolin 0.04 μg/mL polymixin B, and 0.4 μg/mL trimethoprim and stained with TO-PRO-3 and DiOC2(3).
# The ability of fluorofolin to permeabilize P. aeruginosa PA14 was examined. Specifically, flow cytometry of P. aeruginosa stained with TO-PRO-3 was used, treated the bacteria with 2×MIC, and analyzed membrane integrity. […] It was hypothesized that this decrease in membrane targeting might also decrease toxicity due to the disruption of eukaryotic membranes.
# Overnight P. aeruginosa PA14 or E. coli lptD4213 cultures were diluted 1:100 and grown to mid exponential phase at 37° C. Cultures were diluted 1:10 into PBS and treated with antibiotics for 15 minutes. P. aeruginosa PA14 was stained with TO-PRO-3 (640 nm excitation, 670/30 nm emission) to measure cell membrane integrity. […] DiOC2(3) was evaluated as a ratio of green (488 nm excitation, 525/50 nm emission) to red (488 nm excitation, 610/20 nm emission) (Novo et al., 1999). […] 100,000 events were recorded for each data file. Gates for permeabilization were determined using Polymixin B (Sigma-Aldrich P1004) and untreated controls. Gates for depolarization were determined using CCCP as a positive control. Data was analyzed using FlowJo v10 software (FlowJo LLC, Ashland, OR).
compound,measurement,setting,value
Nc1nc(N)c2c(ccc3c2ccn3Cc2ccnc(F)c2)n1 [fluorofolin],increase in IC50 compared to IRS-16,[1],9.6 fold
same,sensitivity of isolates expressing KPC-5 and NDM-1 carbapenemase genes,[2],remained sensitive
same,"sensitivity of strains 7, 18 and 23 of the CDC panel (dfrB2)",[2],fluorofolin-sensitive
same,clinical isolates resistant,[2]; OD600 vs vehicle control,14.5%
same,half-life,[3],12.1 h
same,peak concentration (plasma),[3],4.0 µg/mL
same,MIC,[4],0.03 µg/mL
same,MIC,[5],0.01 µg/mL
same,MIC,[6],0.8 µg/mL
same,MIC,[7],7.11 µg/mL
same,MIC,[8],0.03 µg/mL
same,type of antibacterial activity,[9],bacteriostatic
same,permeabilization of red blood cell membranes (hemolysis),[10],did not cause significant permeabilization
same,membrane depolarization or permeabilization,[11],does not cause membrane depolarization or permeabilization
